This is an account of results in ChEMBL document CHEMBL4610091, “Antimalarial 9-Methoxystrobilurins, Oudemansins, and Related Polyketides from Cultures of Basidiomycete Favolaschia Species” (J Nat Prod, 2020).

The subject of data set [1] is Plasmodium falciparum. Briefly: Antiplasmodial activity against Plasmodium falciparum K1 assessed as reduction in [3H]-hypoxanthine after 42 hrs by microculture radioisotope technique. The data set is classed as functional, organism-based.
The subject of data set [2] is Vero. Description: Cytotoxicity against African green monkey Vero cells by green fluorescent protein-based assay. It counts as cell-based. The conditions noted are these: Chlorocebus sabaeus.
A short description of data set [3]: Selectivity index, ratio of IC50 for African green monkey Vero cells to IC50 for Plasmodium falciparum K1. It counts as toxicity. The conditions noted are these: read-out: Ratio IC50.
Data set [4] deals with MCF7. Description: Cytotoxicity against human MCF7 cells by resazurin microplate assay. The data set is classed as functional, cell-based. (In general: Alamar Blue is a resazurin reagent that responds to reducing activity.)
Data set [5] relates to NCI-H187. Description: Cytotoxicity against human NCI-H187 cells by resazurin microplate assay. The data set is classed as functional, cell-based.

As a reminder, the pIC50 is the negative decadic logarithm of the IC50, by convention in mol/L.

pIC50: −log10 of the molar value.

`O[C@@H](c1cc(C(F)(F)F)nc2c(C(F)(F)F)cccc12)[C@H]1CCCCN1`: in data set [1], the pIC50 is 7.28.

Take `C=CC(C)(C)O[C@H]1COc2ccc(/C=C/[C@H](OC)[C@@H](C)/C(=C\OC)C(=O)OC)cc2OC1(C)C`: the pIC50 was 6.62 in data set [1], 4.61 in data set [2], less than 3.98 in data set [4] and 6.02 in data set [5]. Moreover, the selectivity ratio in data set [3] was 102.

As to `C[C@]1([C@@H]2Cc3cc(C(N)=O)cc(Cl)c3O2)CCC(=O)O1`, the pIC50 in data set [1] was less than 4.47; in data set [2], less than 3.77; in data set [4], less than 3.77; in data set [5], less than 3.77.

For the compound `CC(=O)OCC/C(C)=C\[C@H](O)[C@H](O)c1ccccc1`, the pIC50 is less than 4.42 in data set [1], less than 3.72 in data set [2], less than 3.72 in data set [4] and less than 3.72 in data set [5].

For `C/C(=C\c1ccccc1)[C@@H](O)C(C)(C)C(=O)O`, the pIC50 in data set [1] is less than 4.37; in data set [2] it was less than 3.67; in data set [4] it was less than 3.67; in data set [5], less than 3.67.

Consider `COC(=O)c1cc(-c2ccccc2)cc(OC)c1C`, for which the pIC50 in data set [1] is less than 4.41; in data set [2], 4.13; in data set [4], less than 3.71; in data set [5] it was 3.73.

On to `CO/C=C(/C(=O)OC)[C@H](C)[C@H](/C=C/c1cccc(OC)c1)OC`, for which the pIC50 in data set [1] was 4.99; in data set [2] it was 3.95; in data set [4], less than 3.81; in data set [5], 4.01. The selectivity ratio in data set [3] came out at 10.9.

As to `CO\C=C(C(=O)OC)/C(C)=C\C=C\c1ccc2c(c1)OC(C)(C)[C@@H](OCC=C(C)C)CO2`, the pIC50 is 6.08 in data set [1], less than 3.95 in data set [2], 4.61 in data set [4] and 5.31 in data set [5]. Further, the selectivity ratio in data set [3] was more than 135.

For the compound `COC(=O)/C(CO)=C(/C)[C@H](/C=C/c1ccc(Cl)c(OC)c1)OC`, the pIC50 in data set [1] is less than 4.54; in data set [2], 3.91; in data set [4], less than 3.83; in data set [5] it was 3.85.

Take `C=CC(C)(C)O[C@H]1COc2cc(C(=O)OC)c(C)c(OC)c2OC1(C)C`: the pIC50 in data set [1] was 5.08; in data set [2] it was 4.36; in data set [4], less than 3.95; in data set [5] it was 4.26.

In the case of `CO/C=C(/C(=O)OC)[C@H](C)[C@@H](O)/C=C/c1ccccc1`, the pIC50 was less than 4.44 in data set [1], less than 3.74 in data set [2] and 3.80 in data set [5].

As to `CO/C=C(/C(=O)OC)C(C)C(=O)/C=C/c1ccccc1` (centres undefined), the pIC50 in data set [1] was less than 4.44; in data set [2], less than 3.74; in data set [4], less than 3.74; in data set [5], 4.22.

`C/C(=C\c1ccccc1)[C@@H](O)C(C)(C)O`: the pIC50 was less than 4.32 in data set [1], less than 3.62 in data set [2], less than 3.62 in data set [4] and less than 3.62 in data set [5].

For `CO/C=C(/C(=O)OC)[C@H](C)[C@H](/C=C/c1ccc2c(c1)OC(C)(C)[C@@H](OCC=C(C)C)CO2)OC`, the pIC50 in data set [1] is 6.32; in data set [2], 4.55; in data set [4], less than 3.98; in data set [5], 5.66. Further, the selectivity ratio in data set [3] is 58.8.

Turning to `CO\C=C(C(=O)OC)/C(C)=C(\C=C\c1ccc2c(c1)O[C@@]1(CO2)O[C@H](C=C(C)C)OC1(C)C)OC`, the pIC50 in data set [1] was 6.85; in data set [2] it was less than 3.99; in data set [4], less than 3.99; in data set [5], 5.48. Moreover, in data set [3], the selectivity ratio was more than 736.

Consider `COC(=O)/C(CO)=C(/C)[C@H](/C=C/c1ccccc1)OC`, for which the pIC50 in data set [1] was less than 4.44; in data set [2], less than 3.74; in data set [4] it was less than 3.74; in data set [5] it was less than 3.74.

As for `COC(=O)c1cc(-c2ccc3c(c2)O[C@@]2(CO3)O[C@H](C=C(C)C)OC2(C)C)cc(OC)c1C`, the pIC50 was less than 4.66 in data set [1], 4.87 in data set [2] and 4.27 in data set [5].

Regarding `CO/C=C(/C(=O)OC)[C@H](C)[C@H](/C=C/c1ccc2c(c1)OC(C)(C)[C@@H](O)CO2)OC`, the negative logarithm of the IC50 (pIC50) is 4.65 in data set [1], less than 3.91 in data set [2], less than 3.91 in data set [4] and 4.24 in data set [5]. Moreover, the selectivity ratio in data set [3] was more than 5.2.

As to `COC(=O)/C(COC(=O)Cc1ccccc1)=C(/C)[C@H](/C=C/c1ccc(Cl)c(OC)c1)OC`, the pIC50 in data set [1] is less than 4.66; in data set [2], 4.26; in data set [4] it was less than 3.96; in data set [5] it was 4.42.

With `C/C(=C/[C@H](O)[C@H](O)c1ccccc1)CCO`, the pIC50 was less than 4.35 in data set [1], less than 3.65 in data set [2], less than 3.65 in data set [4] and less than 3.65 in data set [5].

Consider `CO/C=C(/C(=O)OC)C(C)C(=O)/C=C/c1ccc2c(c1)OC(C)(C)[C@@H](OCC=C(C)C)CO2` (some centres undefined), for which the pIC50 is 5.38 in data set [1], 4.17 in data set [2], less than 3.96 in data set [4] and 5.03 in data set [5]. In addition, the selectivity ratio in data set [3] worked out at 16.3.

In the case of `C=CC(C)(C)O[C@H]1COc2ccc(/C=C/C(OC)=C(C)\C(=C/OC)C(=O)OC)cc2OC1(C)C`, the pIC50 in data set [1] was 7.05; in data set [2], 4.01; in data set [4], 4.36; in data set [5], 6.82. For the same compound, the selectivity ratio in data set [3] is 1100.

Consider `CO/C=C(/C(=O)OC)C(C)C(=O)/C=C/c1ccc2c(c1)O[C@@]1(CO2)O[C@H](C=C(C)C)OC1(C)C` (mixture of isomers), for which the pIC50 was 4.97 in data set [1], 4.74 in data set [2], 4.63 in data set [4] and 5.24 in data set [5]. For the same compound, the selectivity ratio in data set [3] is 1.7.

Turning to `C[C@H]1[C@@H](O)O[C@@H]2O[C@@]3(C)CC[C@H]4[C@H](C)CC[C@@H]1[C@@]24OO3` [ARTENIMOL], in data set [1], the pIC50 was 8.51.

For `Cc1c2ccncc2c(C)c2c1[nH]c1ccccc12` [ELLIPTECINE], the pIC50 in data set [2] is 5.13; in data set [5], 5.03.
